In US20240341307A1, “FUNGICIDAL COMPOSITIONS” (SYNGENTA CROP PROTECTION AG, priority 2021, published 2024):

How the values were obtained:
Assay type in all cases: cell-based
Details in all cases: alone
Alternaria solani = Alternaria solani (early blight tomato/potato) growth inhibition in nutrient broth, microtiter plate, photometric after 48 hrs
Description: A synergistic effect exists whenever the action of an active ingredient combination is greater than the sum of the actions of the individual components. The action to be expected E for a given active ingredient combination obeys the so-called COLBY formula and can be calculated as follows (COLBY, S. R. “Calculating synergistic and antagonistic responses of herbicide combination”. Weeds, Vol. 15, pages 20-22; 1967): • ppm=milligrams of active ingredient (=a.i.) per liter of spray mixture • X=% action by active ingredient A) using p ppm of active ingredient • Y=% action by active ingredient B) using q ppm of active ingredient. According to COLBY, the expected (additive) action of active ingredients A)+B) using p+q ppm of active ingredient is If the action actually observed (O) is greater than the expected action (E), then the action of the combination is super-additive, i.e. there is a synergistic effect. In mathematical terms, synergism corresponds to a positive value for the difference of (O-E). In the case of purely complementary addition of activities (expected activity), said difference (O-E) is zero. A negative value of said difference (O-E) signals a loss of activity compared to the expected activity. Alternaria solani (Early Blight Tomato/Potato): Conidia of the fungus from cryogenic storage were directly mixed into nutrient broth (PDB potato dextrose broth). A DMSO solution of the test compounds was placed into a microtiter plate (96-well format) and the nutrient broth containing the fungal spores was added to it. The test plates were incubated at 24 C and the inhibition of growth was determined photometrically after 48 hrs.

Botrytis cinerea = Botrytis cinerea (gray mould) growth inhibition in nutrient broth, microtiter plate, photometric after 72 hrs
Description: A synergistic effect exists whenever the action of an active ingredient combination is greater than the sum of the actions of the individual components. The action to be expected E for a given active ingredient combination obeys the so-called COLBY formula and can be calculated as follows (COLBY, S. R. “Calculating synergistic and antagonistic responses of herbicide combination”. Weeds, Vol. 15, pages 20-22; 1967): • ppm=milligrams of active ingredient (=a.i.) per liter of spray mixture • X=% action by active ingredient A) using p ppm of active ingredient • Y=% action by active ingredient B) using q ppm of active ingredient. According to COLBY, the expected (additive) action of active ingredients A)+B) using p+q ppm of active ingredient is If the action actually observed (O) is greater than the expected action (E), then the action of the combination is super-additive, i.e. there is a synergistic effect. In mathematical terms, synergism corresponds to a positive value for the difference of (O-E). In the case of purely complementary addition of activities (expected activity), said difference (O-E) is zero. A negative value of said difference (O-E) signals a loss of activity compared to the expected activity. Botrytis cinerea (GRAY Mould): Conidia of the fungus from cryogenic storage were directly mixed into nutrient broth ([…] potato dextrose broth). A DMSO solution of the test compounds was placed into a microtiter plate (96-well format) and the nutrient broth containing the fungal spores was added to it. The test plates were incubated at 24 C and the inhibition of growth was determined photometrically after 72 hrs.

Sclerotinia sclerotiorum = Sclerotinia sclerotiorum (cottony rot, white mold) growth inhibition in nutrient broth, photometric after 72 hrs at 620 nm
Description: A synergistic effect exists whenever the action of an active ingredient combination is greater than the sum of the actions of the individual components. The action to be expected E for a given active ingredient combination obeys the so-called COLBY formula and can be calculated as follows (COLBY, S. R. “Calculating synergistic and antagonistic responses of herbicide combination”. Weeds, Vol. 15, pages 20-22; 1967): • ppm=milligrams of active ingredient (=a.i.) per liter of spray mixture • X=% action by active ingredient A) using p ppm of active ingredient • Y=% action by active ingredient B) using q ppm of active ingredient. According to COLBY, the expected (additive) action of active ingredients A)+B) using p+q ppm of active ingredient is If the action actually observed (O) is greater than the expected action (E), then the action of the combination is super-additive, i.e. there is a synergistic effect. In mathematical terms, synergism corresponds to a positive value for the difference of (O-E). In the case of purely complementary addition of activities (expected activity), said difference (O-E) is zero. A negative value of said difference (O-E) signals a loss of activity compared to the expected activity. Sclerotinia sclerotiorum (Cottony Rot, White Mold, Etc.) Mycelial fragments of the fungus prepared from a fresh liquid culture were directly mixed into nutrient broth (PDB potato dextrose broth). A DMSO solution of the test compounds was placed into a microtiter plate (96-well format) and the nutrient broth containing the fungal spores was added to it. The test plates were incubated at 24 C and the inhibition of growth was determined photometrically after 72 hrs at 620 nm.

[1] = test system: Glomerella lapenarium Syn. Colletotrichum lapenarium; experiment: Glomerella lapenarium syn. Colletotrichum lapenarium (anthracnose of cucurbits) growth inhibition in nutrient broth, photometric after 72 hrs at 620 nm
Description: A synergistic effect exists whenever the action of an active ingredient combination is greater than the sum of the actions of the individual components. The action to be expected E for a given active ingredient combination obeys the so-called COLBY formula and can be calculated as follows (COLBY, S. R. “Calculating synergistic and antagonistic responses of herbicide combination”. Weeds, Vol. 15, pages 20-22; 1967): • ppm=milligrams of active ingredient (=a.i.) per liter of spray mixture • X=% action by active ingredient A) using p ppm of active ingredient • Y=% action by active ingredient B) using q ppm of active ingredient. According to COLBY, the expected (additive) action of active ingredients A)+B) using p+q ppm of active ingredient is If the action actually observed (O) is greater than the expected action (E), then the action of the combination is super-additive, i.e. there is a synergistic effect. In mathematical terms, synergism corresponds to a positive value for the difference of (O-E). In the case of purely complementary addition of activities (expected activity), said difference (O-E) is zero. A negative value of said difference (O-E) signals a loss of activity compared to the expected activity. Glomerella lapenarium Syn. Colletotrichum lapenarium (Anthracnose of Cucurbits): Conidia of the fungus from cryogenic storage were directly mixed into nutrient broth ([…] potato dextrose broth). A DMSO solution of the test compounds was placed into a microtiter plate (96-well format) and the nutrient broth containing the fungal spores was added to it. The test plates were incubated at 24 C and the inhibition of growth was determined photometrically after 72 hrs at 620 nm.

[2] = test system: Mycosphaerella arachidis syn. Cercospora arachidicola; experiment: Mycosphaerella arachidis syn. Cercospora arachidicola (brown leaf spot of peanut) growth inhibition in nutrient broth, photometric after 5-6 days at 620 nm
Description: A synergistic effect exists whenever the action of an active ingredient combination is greater than the sum of the actions of the individual components. The action to be expected E for a given active ingredient combination obeys the so-called COLBY formula and can be calculated as follows (COLBY, S. R. “Calculating synergistic and antagonistic responses of herbicide combination”. Weeds, Vol. 15, pages 20-22; 1967): • ppm=milligrams of active ingredient (=a.i.) per liter of spray mixture • X=% action by active ingredient A) using p ppm of active ingredient • Y=% action by active ingredient B) using q ppm of active ingredient. According to COLBY, the expected (additive) action of active ingredients A)+B) using p+q ppm of active ingredient is If the action actually observed (O) is greater than the expected action (E), then the action of the combination is super-additive, i.e. there is a synergistic effect. In mathematical terms, synergism corresponds to a positive value for the difference of (O-E). In the case of purely complementary addition of activities (expected activity), said difference (O-E) is zero. A negative value of said difference (O-E) signals a loss of activity compared to the expected activity. Mycosphaerella arachidis syn. Cercospora arachidicola (Brown leaf spot of peanut): Conidia of the fungus from cryogenic storage were directly mixed into nutrient broth (PDB potato dextrose broth). A DMSO solution of the test compounds was placed into a microtiter plate (96-well format) and the nutrient broth containing the fungal spores was added to it. The test plates were incubated at 24 C and the inhibition of growth was determined photometrically after 5-6 days at 620 nm

O=C(NC1CCC1c1ccc(Cl)cc1Cl)c1cccnc1C(F)(F)F (stereo in doubt) [Cyclobutrifluram, cyclobutrifluram]
Observed Activity (%) (Alternaria solani; 0.0008 ppm): 0%
Observed Activity (%) (Alternaria solani; 0.00246 ppm): 20%
Observed Activity (%) (Alternaria solani; 0.0074 ppm): 50%
Observed Activity (%) (Alternaria solani; 0.022 ppm): 70%
Observed Activity (%) (Botrytis cinerea; 0.066 ppm): 20%
Observed Activity (%) (Botrytis cinerea; 0.074 ppm): 20%
Observed Activity (%) (Botrytis cinerea; 0.2 ppm): 50%
Observed Activity (%) (Botrytis cinerea; 0.22 ppm): 50%
Observed Activity (%) (Botrytis cinerea; 0.66 ppm): 70%
Observed Activity (%) (Sclerotinia sclerotiorum; 0.074 ppm): 20%

CCS(=O)(=O)c1cc(C(F)(F)F)ccc1C(=O)N(C(C)=O)c1ccc(OC(F)(F)F)cc1C(=O)OC [Compound A-1.1, Methyl 2-[acetyl-[2-ethylsulfonyl-4-(trifluoromethyl)benzoyl]amino]-5-(trifluoromethoxy)benzoate]
inhibition at 1 ppm (Alternaria solani; Alternaria solani, 1 ppm, read-out: Observed Activity (%)): 50%
inhibition at 2 ppm (Alternaria solani; Alternaria solani, 2 ppm, read-out: Observed Activity (%)): 50%
inhibition at 1 ppm (Botrytis cinerea; Botrytis cinerea, 1 ppm, read-out: Observed Activity (%)): 50%
inhibition at 2 ppm (Botrytis cinerea; Botrytis cinerea, 2 ppm, read-out: Observed Activity (%)): 50%
inhibition at 10 ppm (Botrytis cinerea; Botrytis cinerea, 10 ppm, read-out: Observed Activity (%)): 50%
inhibition at 20 ppm (Botrytis cinerea; Botrytis cinerea, 20 ppm, read-out: Observed Activity (%)): 50%
inhibition at 1 ppm ([1]; Colletotrichum, 1 ppm, read-out: Observed Activity (%)): 0%
inhibition at 2 ppm ([1]; Colletotrichum, 2 ppm, read-out: Observed Activity (%)): 0%
inhibition at 10 ppm ([1]; Colletotrichum, 10 ppm, read-out: Observed Activity (%)): 70%
inhibition at 20 ppm ([1]; Colletotrichum, 20 ppm, read-out: Observed Activity (%)): 70%
inhibition at 10 ppm ([2]; Mycosphaerella arachidis, 10 ppm, read-out: Observed Activity (%)): 0%
inhibition at 20 ppm ([2]; Mycosphaerella arachidis, 20 ppm, read-out: Observed Activity (%)): 0%
inhibition at 10 ppm (Sclerotinia sclerotiorum; Sclerotinia sclerotiorum, 10 ppm, read-out: Observed Activity (%)): 0%
inhibition at 20 ppm (Sclerotinia sclerotiorum; Sclerotinia sclerotiorum, 20 ppm, read-out: Observed Activity (%)): 0%

O=C(Nc1ccccc1F)c1ccc(-c2noc(C(F)(F)F)n2)cc1 [Flufenoxadiazam, flufenoxadiazam]
Observed Activity (%) ([1]; 0.08 ppm): 20%
Observed Activity (%) ([1]; 0.246 ppm): 20%
Observed Activity (%) ([1]; 0.74 ppm): 20%
Observed Activity (%) ([1]; 2.22 ppm): 20%

N#Cc1ccc(Oc2ccc(C(F)(F)C(O)(Cn3[nH]cnc3=S)c3ccc(F)cc3F)nc2)cc1 (stereo not drawn) [Fluoxytioconazole, fluoxytioconazole]
Observed Activity (%) (Botrytis cinerea; 0.22 ppm): 0%
Observed Activity (%) (Botrytis cinerea; 0.66 ppm): 0%
Observed Activity (%) (Botrytis cinerea; 2 ppm): 0%
Observed Activity (%) (Botrytis cinerea; 6 ppm): 20%

CCC(=O)Oc1c(OC)ccnc1C(=O)N[C@@H](C)C(=O)O[C@@H](C)[C@@H](C)c1ccccc1C [Metarylpicoxamid, metarylpicoxamid]
Observed Activity (%) (Alternaria solani; 0.22 ppm): 20%
Observed Activity (%) (Alternaria solani; 0.66 ppm): 50%
Observed Activity (%) (Alternaria solani; 2 ppm): 50%
Observed Activity (%) (Botrytis cinerea; 0.0246 ppm): 0%
Observed Activity (%) (Botrytis cinerea; 0.074 ppm): 20%
Observed Activity (%) (Botrytis cinerea; 0.22 ppm): 50%
Observed Activity (%) (Botrytis cinerea; 0.66 ppm): 70%
Observed Activity (%) ([1]; 2 ppm): 70%
Observed Activity (%) ([2]; 0.0246 ppm): 20%

CON(C(=O)c1cn(C)nc1C(F)F)C(C)Cc1c(Cl)cc(Cl)cc1Cl (stereo not drawn) [Pydiflumetofen, pydiflumetofen]
Observed Activity (%) (Alternaria solani; 0.0008 ppm): 0%
Observed Activity (%) (Alternaria solani; 0.00246 ppm): 50%
Observed Activity (%) (Alternaria solani; 0.0074 ppm): 70%
Observed Activity (%) (Botrytis cinerea; 0.0008 ppm): 0%
Observed Activity (%) (Botrytis cinerea; 0.00246 ppm): 20%
Observed Activity (%) (Botrytis cinerea; 0.0074 ppm): 50%
Observed Activity (%) (Botrytis cinerea; 0.022 ppm): 70%
